# Assay results as given in patent US11319298B2 (Merck Sharp & Dohme Corp., priority 2016, dated 2022).
# Target: T1, human M4 muscarinic acetylcholine receptor (Homo sapiens, UniProt P08173)
# T1 construct: expressed in transfected cells; host or cells: CHO-K1
# T1 sequence (P08173 1-479): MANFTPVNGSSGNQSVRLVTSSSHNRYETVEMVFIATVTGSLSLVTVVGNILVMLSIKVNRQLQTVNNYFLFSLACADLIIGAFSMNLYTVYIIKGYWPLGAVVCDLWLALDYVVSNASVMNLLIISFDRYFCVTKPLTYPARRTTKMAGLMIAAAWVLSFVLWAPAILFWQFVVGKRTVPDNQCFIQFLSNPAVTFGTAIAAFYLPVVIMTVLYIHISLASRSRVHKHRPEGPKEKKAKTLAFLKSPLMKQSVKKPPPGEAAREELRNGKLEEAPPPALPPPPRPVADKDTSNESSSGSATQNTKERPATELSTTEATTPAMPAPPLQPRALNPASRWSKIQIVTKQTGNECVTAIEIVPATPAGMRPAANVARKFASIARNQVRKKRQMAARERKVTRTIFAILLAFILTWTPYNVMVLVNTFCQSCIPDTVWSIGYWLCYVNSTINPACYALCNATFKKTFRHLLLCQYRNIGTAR
# Test: human FLIPR-based M4 PAM assay, CHO-K1 cells stably transfected with human M4 receptor and chimeric G-protein Gαqi5
# Type: cell-based
# Details: inflection point (IP) of dose response curve; acetylcholine added at 20% of maximum response; CHO-K1 human M4/Gαqi5, FLIPR Tetra
# Summary of the method: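 The FLIPR read recorded 4 min after compound was added across a concentration range, then 3.5 min after acetylcholine giving 20% of its maximal response, with an occasional extra EC70 addition. Cells were dye-loaded for about 1 h at 37 °C. Potency is the curve inflection point from a four-parameter logistic fit.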
row,Compound,EC50 [nM]
1,"Cc1cc(C(=O)NC2CCc3cnccc3C2)nnc1N1CCC(Oc2cccc(C#N)c2)CC1 (stereo not shown) [Example 172, 6-[4-(3-cyanophenoxy)piperidin-1-yl]-5-methyl-N-(5,6,7,8-tetrahydroisoquinolin-6-yl)pyridazine-3-carboxamide]",508
2,"COc1ccc(OC2CCN(c3nc(C(N)=O)nc(Cl)c3C)CC2)cn1 [Example 206, 4-chloro-6-(4-((6-methoxypyridin-3-yl)oxy)piperidin-1-yl)-5-methylpyrimidine-2-carboxamide]",168
3,"Cc1c(-c2ccc3c(=O)nc[nH]c3c2)ncnc1N1CCC(Oc2cccc(C#N)c2)CC1 [Example 253, 3-((1-(5-methyl-6-(4-oxo-1,4-dihydroquinazolin-7-yl)pyrimidin-4-yl)piperidin-4-yl)oxy)benzonitrile]",1740
4,"Cc1c(Cl)nc(CO)nc1N1CCC(Oc2ccc3ccc(=O)oc3c2)CC1 [Example 2, 7-((1-(6-chloro-2-(hydroxymethyl)-5-methylpyrimidin-4-yl)piperidin-4-yl)oxy)-2H-chromen-2-one]",427
5,"Cc1ncc(C)c(N2CC[C@H](Oc3cccc(C#N)c3)[C@H](F)C2)n1 [Example 81, 3-(((3R,4S)-1-(2,5-dimethylpyrimidin-4-yl)-3-fluoropiperidin-4-yl)oxy)benzonitrile]",293
6,"Cc1c(Cl)nc(CO)nc1N1CCC(Oc2ccc3c(c2)COC3)CC1 [Example 94, (4-chloro-6-(4-((1,3-dihydroisobenzofuran-5-yl)oxy)piperidin-1-yl)-5-methylpyrimidin-2-yl)methanol]",34
7,"COc1ccc(OC2CCN(c3ncnc(CC(C)C)c3C)CC2)cn1 [Example 255, 4-isobutyl-6-(4-((6-methoxypyridin-3-yl)oxy)piperidin-1-yl)-5-methylpyrimidine]",2520
8,"COc1ncc(OC2CCN(c3nc(CO)nc(Cl)c3C)CC2)cc1F [Example 54, (4-chloro-6-(4-((5-fluoro-6-methoxypyridin-3-yl)oxy)piperidin-1-yl)-5-methylpyrimidin-2-yl)methanol]",55
9,"Cc1cc(C(=O)NC2CCCc3ccccc32)nnc1N1CCC(Oc2cccc(C#N)c2)CC1 (stereo not shown) [Example 202, 6-[4-(3-cyanophenoxy)piperidin-1-yl]-5-methyl-N-(1,2,3,4-tetrahydronaphthalne-1-yl)pyridazine-3-carboxamide]",473
10,"Cc1c(Cl)nc(CO)nc1N1CC[C@@H](Oc2ccc3c(cnn3C)c2)[C@@H](F)C1 (relative stereo) [Example 25, (4-chloro-6-((cis)-3-fluoro-4-((1-methyl-1H-indazol-5-yl)oxy)piperidin-1-yl)-5-methylpyrimidin-2-yl)methanol]",78
11,"Cc1c(-c2ccoc2)ncnc1N1CCC(Oc2cccc(C#N)c2)CC1 [Example 249, 3-((1-(6-(furan-3-yl)-5-methylpyrimidin-4-yl)piperidin-4-yl)oxy)benzonitrile]",925
12,"Cc1c(Cl)ncnc1N1CCC(Oc2ccc3c(cnn3C)c2)CC1 [Example 60, 5-((1-(6-chloro-5-methylpyrimidin-4-yl)piperidin-4-yl)oxy)-1-methyl-1H-indazole]",67
13,"CCCCc1ncnc(N2CCC(Oc3ccc(OC)nc3)CC2)c1C [Example 256, 4-butyl-6-(4-((6-methoxypyridin-3-yl)oxy)piperidin-1-yl)-5-methylpyrimidine]",2630
14,"Cc1c(Cl)nc(CO)nc1N1CCC(Oc2ccc3[nH]ccc3c2)CC1 [Example 97, (4-(4-((1H-indol-5-yl)oxy)piperidin-1-yl)-6-chloro-5-methylpyrimidin-2-yl)methanol]",68
15,"Cc1nc(C)c(C)c(N2CCC(Oc3cccc(C#N)c3)CC2)n1 [Example 103, 3-((1-(2,5,6-Trimethylpyrimidin-4-yl)piperidin-4-yl)oxy)benzonitrile]",61
16,"Cc1cc(C(=O)NCc2ccccc2Cl)nnc1N1CCC(Oc2cccc(C#N)c2)CC1 [Example 199, N-(2-chlorobenzyl)-6-[4-(3-cyanophenoxy)piperidin-1-yl]-5-methylpyridazine-3-carboxamide]",118
17,"COC(=O)c1cc(C)c(N2CCC(Oc3ccc(OC)cc3)CC2)nn1 [Example 10, methyl 6-(4-(4-methoxyphenoxy)piperidin-1-yl)-5-methylpyridazine-3-carboxylate]",82

# Now from value to molecule:
row,EC50 [nM],Compound
1,459,"COc1ccc(OC2CCN(c3nnc(C(=O)NC4CCCC4)cc3C)CC2)cn1 [Example 169, N-cyclopentyl-6-{4-[(6-methoxypyridin-3-yl)oxy]piperidin-1-yl}-5-methylpyridazine-3-carboxamide]"
2,170,"CCOC(=O)c1cc(C)c(N2CCC(Oc3ccc(OC)nc3)CC2)nn1 [Example 105A, ethyl 6-(4-((6-methoxypridin-3-yl)oxy)piperidin-1-yl)-5-methylpyridazine-3-carboxylate]"
3,96,"COc1ccc(OC2CCN(c3nnc(C(=O)Nc4ccncc4)cc3C)CC2)cn1 [Example 120, 6-{4-[(6-methoxypyridin-3-yl)oxy]piperidin-1-yl}-5-methyl-N-pyridin-4-ylpyridazine-3-carboxamide]"
4,417,"COc1ccc(OC2CCN(c3nnc(C(=O)NCc4ncn[nH]4)cc3C)CC2)cn1 [Example 167, 6-{4-[(6-methoxypyridin-3-yl)oxy]piperidin-1-yl}-5-methyl-N-(1H-1,2,4-triazol-5-ylmethyl)pyridazine-3-carboxamide]"
5,182,"COc1ccc(OC2CCN(c3nnc(C(=O)N[C@@H]4CCc5ccncc5C4)cc3C)CC2)cn1 (single isomer, unassigned) [Example 107A]"
6,173,"COc1ccc(OC2CCN(c3nnc(C(=O)NC4CCc5cccnc5C4)cc3C)CC2)cn1 (stereo not shown) [Example 136, 6-{4-[(6-methoxypyridin-3-yl)oxy]piperidin-1-yl}-5-methyl-N-(5,6,7,8-tetrahydroquinolin-7-yl)pyridazine-3-carboxamide]"
7,209,"COc1ccc(OC2CCN(c3nnc(C(=O)NC45CC(C4)C5)cc3C)CC2)cn1 [Example 147, N-bicyclo[1.1.1]pent-1-yl-6-{4-[(6-methoxypyridin-3-yl)oxy]piperidin-1-yl}-5-methylpyridazine-3-carboxamide]"
8,194,"COc1ccc(OC2CCN(c3nnc(C(=O)NC4CNC(=O)C4)cc3C)CC2)cn1 (stereo not shown) [Example 145, 6-{4-[(6-methoxypyridin-3-yl)oxy]piperidin-1-yl}-5-methyl-N-(5-oxopyrrolidin-3-yl)pyridazine-3-carboxamide]"
9,57,"COc1ccc(OC2CCN(c3nnc(C(=O)N[C@@H]4CCc5ncccc5C4)cc3C)CC2)cn1 [Example 141A, (R)-6-(4-((6-methoxypyridin-3-yl)oxy)piperidin-1-yl)-5-methyl-N-(5,6,7,8-tetrahydroquinolin-6-yl)pyridazine-3-carboxamide]"
10,91,"COc1ccc(OC2CCN(c3nnc(C(=O)NCCc4ccccc4Cl)cc3C)CC2)cn1 [Example 197, N-[2-(2-chlorophenyl)ethyl]-6-{4-[(6-methoxypyridin-3-yl)oxy]piperidin-1-yl}-5-methylpyridazine-3-carboxamide]"
11,552,"COc1ccc(OC2CCN(c3nnc(C(=O)N[C@H]4CCc5ccccc54)cc3C)CC2)cn1 [Example 173, N-[(1S)-2,3-dihydro-1H-inden-1-yl]-6-{4-[(6-methoxypyridin-3-yl)oxy]piperidin-1-yl}-5-methylpyridazine-3-carboxamide]"
12,573,"COc1ccc(OC2CCN(c3nnc(C(=O)NCc4ccc5c(c4)CNC5=O)cc3C)CC2)cn1 [Example 175, 6-{4-[(6-methoxypyridin-3-yl)oxy]piperidin-1-yl}-5-methyl-N-[(1-oxo-2,3-dihydro-1H-isoindol-5-yl)methyl]pyridazine-3-carboxamide]"
13,224,"COc1ccc(OC2CCN(c3nc(C(=O)NCc4ccncc4)nc(Cl)c3C)CC2)cn1 [Example 207, 4-chloro-6-(4-((6-methoxypyridin-3-yl)oxy)piperidin-1-yl)-5-methyl-N-(pyridin-4-ylmethyl)pyrimidine-2-carboxamide]"
14,159,"COc1ccc(OC2CCN(c3nnc(C(=O)N[C@H]4CCc5cccnc5C4)cc3C)CC2)cn1 [Example 126B, (S)-6-{4-[(6-methoxypyridin-3-yl)oxy]piperidin-1-yl}-5-methyl-N-(5,6,7,8-tetrahydroquinolin-7-yl)pyridazine-3-carboxamide]"
15,177,"COc1ccc(OC2CCN(c3nnc(C(=O)NCc4ccnnc4)cc3C)CC2)cn1 [Example 139, 6-{4-[(6-methoxypyridin-3-yl)oxy]piperidin-1-yl}-5-methyl-N-(pyridazin-4-ylmethyl)pyridazine-3-carboxamide]"
16,1330,"COc1ccc(OC2CCN(c3nnc(C(=O)N[C@@H]4CCCc5ccccc54)cc3C)CC2)cn1 [Example 187, 6-{4-[(6-methoxypyridin-3-yl)oxy]piperidin-1-yl}-5-methyl-N-[(1R)-1,2,3,4-tetrahydronaphthalen-1-yl]pyridazine-3-carboxamide]"
17,185,"COc1ccc(OC2CCN(c3nnc(C(=O)NCCn4ccnn4)cc3C)CC2)cn1 [Example 142, 6-{4-[(6-methoxypyridin-3-yl)oxy]piperidin-1-yl}-5-methyl-N-[2-(1H-1,2,3-triazol-1-yl)ethyl]pyridazine-3-carboxamide]"
